From article PMC6435570, “Zafirlukast Is a Dual Modulator of Human Soluble Epoxide Hydrolase and Peroxisome Proliferator-Activated Receptor γ” (Frontiers in Pharmacology, 2019)

Columns and labels:
[1] = target: T1, human PPARα ligand binding domain (Homo sapiens, UniProt Q07869); test: PPAR reporter gene assay (Gal4 hybrid, PPARα); type: cell-based; conditions: HEK-293T, reference GW7647 1 μM, tested up to 10 μM
T1 construct: expressed in transfected cells; host or cells: HEK-293T
T1 sequence (Q07869 239-466 limits assumed): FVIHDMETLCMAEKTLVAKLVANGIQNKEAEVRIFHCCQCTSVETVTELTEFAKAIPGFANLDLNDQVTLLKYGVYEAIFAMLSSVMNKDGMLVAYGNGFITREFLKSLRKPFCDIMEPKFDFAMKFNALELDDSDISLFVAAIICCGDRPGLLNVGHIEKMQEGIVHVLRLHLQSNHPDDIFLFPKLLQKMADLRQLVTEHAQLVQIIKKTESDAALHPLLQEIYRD
Experimental: (§3) HEK-293T cells were seeded in 96-well plates (2.5 × 10^4 cells/well) and were allowed to adhere overnight. Before transfection, medium was changed to Opti-MEM without supplements. Transient plasmid transfection was carried out using Lipofectamine LTX reagent (Invitrogen, Carlsbad, CA, United States) according to the manufacturer’s protocol with pFR-Luc (Stratagene, La Jolla, CA, United States), pRL-SV40 (Promega, Fitchburg, MA, United States) and pFA-CMV-PPAR-LBD ([Rau et al., 2006]). 5 h after transfection, medium was changed to Opti-MEM supplemented with penicillin (100 U/mL) and streptomycin (100 μg/mL), now additionally containing 0.1% DMSO and the respective test compound or 0.1% DMSO alone as untreated control. Each concentration was tested in triplicates and each experiment was repeated independently at least four times. Following overnight (12–16 h) incubation with the test compounds, cells were assayed for luciferase activity using the Dual-Glo^TM Luciferase Assay System (Promega, Fitchburg, MA, United States) according to the manufacturer’s protocol. Luminescence was measured with an Infinite M200 luminometer (Tecan Group Ltd., Männedorf, Switzerland). Normalization of transfection efficiency and cell growth was done by division of firefly luciferase data by renilla luciferase data and multiplying the value by 1000 resulting in relative light units (RLU). Fold activation was obtained by dividing the mean RLU of a test compound at a respective concentration by the mean RLU of untreated control. Relative activation was obtained by dividing the fold activation of a test compound at a respective concentration by the fold activation of the respective PPARα, γ or δ full agonist GW-7647, pioglitazone or L165,041 at 1 μM. EC50 and standard deviation were calculated with the mean relative activation values of at least four independent experiments by SigmaPlot 10.0 (Systat Software GmbH, Erkrath, Germany) using a four parameter logistic regression. […]

[2] = target: T2, human PPARδ ligand binding domain (Homo sapiens, UniProt Q03181); test: PPAR reporter gene assay (Gal4 hybrid, PPARδ); type: cell-based; conditions: HEK-293T, reference L165,041 1 μM, tested up to 10 μM
T2 construct: expressed in transfected cells; host or cells: HEK-293T
T2 sequence (Q03181 211-439 limits assumed): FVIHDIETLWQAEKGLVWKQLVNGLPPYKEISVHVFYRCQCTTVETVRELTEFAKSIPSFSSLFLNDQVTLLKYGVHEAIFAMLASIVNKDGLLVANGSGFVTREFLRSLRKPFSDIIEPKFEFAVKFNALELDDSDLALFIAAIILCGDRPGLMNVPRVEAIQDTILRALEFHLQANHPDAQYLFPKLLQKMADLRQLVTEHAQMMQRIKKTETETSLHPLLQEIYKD
Experimental: as §3

recombinant human sEH = target: T3, recombinant human sEH (Homo sapiens, UniProt P34913); test: Recombinant sEH activity (PHOME fluorescence assay); type: biochemical; conditions: PHOME 50 μM, 30 min preincubation at RT, read-out: sEH rec. IC50
T3 sequence (P34913 1-555): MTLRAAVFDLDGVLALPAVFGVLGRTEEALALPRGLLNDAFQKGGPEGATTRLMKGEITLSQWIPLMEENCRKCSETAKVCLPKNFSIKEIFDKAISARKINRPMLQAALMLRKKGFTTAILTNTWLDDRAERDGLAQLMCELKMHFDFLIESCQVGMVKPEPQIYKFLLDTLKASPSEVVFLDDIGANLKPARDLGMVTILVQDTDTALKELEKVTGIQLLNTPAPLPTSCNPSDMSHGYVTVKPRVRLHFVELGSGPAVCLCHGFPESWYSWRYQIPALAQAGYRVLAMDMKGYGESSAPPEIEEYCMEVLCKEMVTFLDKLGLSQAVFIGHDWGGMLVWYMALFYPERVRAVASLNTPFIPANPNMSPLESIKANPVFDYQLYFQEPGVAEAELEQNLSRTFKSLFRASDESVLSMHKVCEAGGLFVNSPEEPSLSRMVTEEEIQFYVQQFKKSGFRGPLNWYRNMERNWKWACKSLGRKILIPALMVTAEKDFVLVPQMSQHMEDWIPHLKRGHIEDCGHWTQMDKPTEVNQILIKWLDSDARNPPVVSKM
Experimental: For determination of IC50 values of recombinant human sEH a 96-well fluorescence-based assay system was used as described before ([Blöcher et al., 2016a]). In brief, non-fluorescent PHOME (3 phenylcyano-(6-methoxy-2-naphthalenyl)methyl ester 2-oxiraneacetic acid, Cayman Chemicals, Ann Arbor, MI, United States) was used as substrate, which is hydrolyzed by sEH to the fluorescent 6-methoxynaphthaldehyde ([Rau et al., 2006]). The formation of the fluorescent product was measured (λem = 330 nm, λex = 465 nm) by an Infinite F200 Pro plate reader (Tecan Group Ltd., Männedorf, Switzerland). For that purpose, 2 μg recombinant human sEH in 100 μl bis-Tris buffer (pH 7, 0.1 mg/mL BSA, 0.01% Triton-X 100) was applied per well. This protein solution was then incubated with different concentrations of the test compounds for 30 min at RT. After this, 10 μL of the substrate were added (final concentration 50 μM). The formation of 6-methoxynaphthaldehyde was monitored for 30 min. All concentrations were tested in triplicate wells.

sEH (HEP-G2) = target: T4, sEH (HEP-G2) (Homo sapiens, UniProt P34913); test: sEH activity in HEP-G2 cell lysates (14(15)-EET-d11 to DHET-d11, LC-MS/MS); type: biochemical; conditions: HEP-G2 cell homogenate, (±)14(15)-EET-d11 substrate, DHET formation by LC-MS/MS
T4 construct: 1 μg of total cell homogenate diluted in 100 μl of PBS; endogenous in cells; host or cells: HEP-G2
T4 sequence (P34913 1-555): T3 sequence (P34913 1-555)
Experimental: Quantification of cellular sEH metabolic activity was performed as described by [Zha et al. (2014)]. For this, HEP-G2 cells were harvested, washed twice with PBS and sonicated in PBS for disruption of cell integrity. Then, 1 μg of total cell homogenate diluted in 100 μl of PBS containing 0.1 mg/ml BSA was incubated with the compounds or vehicle for 15 min at 37°C. After this, 25 ng (±)14(15)-EET-d11 (Cayman Chemical, Ann Arbor, MI, United States) were added per sample and the incubation was continued for additional 10 min at 37°C. A blank was performed using PBS (containing 0,1 mg/mL BSA). The reactions were stopped by adding 100 μL of ice cold methanol. After centrifugation (2000 rpm, 4°C, 5 min), supernatants were analyzed by LC-MS/MS and the amounts of (±)14(15)-EET-d11 and the corresponding (±)14(15)-DHET-d11 were determined.
14(15)-EET-d11 and 14(15)-DHET-d11 content of the extracted samples were analyzed employing liquid chromatography tandem mass spectroscopy (LC-MS/MS). The LC/MS-MS system comprised an API 5500 QTrap (Sciex, Darmstadt, Germany), equipped with a Turbo-V-source operating in negative ESI mode, an Agilent 1200 binary HPLC pump and degasser (Agilent, Waldbronn, Germany) and an HTC Pal autosampler (Chromtech, Idstein, Germany) fitted with a 25 μL LEAP syringe (Axel Semrau GmbH, Sprockhövel, Germany). High purity nitrogen for the mass spectrometer was produced by a NGM 22-LC/MS nitrogen generator (cmc Instruments, Eschborn, Germany). All substances were obtained from Cayman Chemical, Ann Arbor, MI, United States. Stock solutions with 2,500 ng/mL of both analytes were prepared in methanol. Working standards were obtained by further dilution with a concentration range of 0.1–250 ng/mL for 14(15)-EET-d11 and 14(15)-DHET-d11. Sample extraction was performed with liquid–liquid-extraction. Therefore, 150 μL of matrix homogenates were gently mixed with 20 μL of internal standard [14(15)-EET and 14(15)-DHET all with a concentration of 100 ng/ml in methanol], and were extracted twice with 600 μL of ethyl acetate. Samples for standard curve and quality control were prepared similarly, instead of 150 μL of matrix homogenates, 150 μL PBS were added. Further 20 μL methanol, 20 μL working standard and 20 μL internal standard were added. The organic phase was removed at a temperature of 45°C under a gentle stream of nitrogen. The residues were reconstituted with 50 μL of methanol/water/(50:50, v/v), centrifuged for 2 min at 10,000 g and then transferred to glass vials (Macherey-Nagel, Düren, Germany) prior to injection into the LC-MS/MS system. For the chromatographic separation a Gemini NX C18 column and pre-column were used (150 mm × 2 mm i.d., 5 μm particle size and 110 Å pore size from Phenomenex, Aschaffenburg, Germany). A linear gradient was employed at a flow rate of 0.5 mL/min mobile phase with a total run time of 17.5 min. Mobile phase was A water/ammonia (100:0.05, v/v) and B acetonitrile/ammonia (100:0.05, v/v). The gradient started from 85% A to 10% within 12 min. This was held for 1 min at 10% A. Within 0.5 min the mobile phase shifted back to 85% A and was held for 3.5 min to equilibrate the column for the next sample. The injection volume of samples was 20 μL. Quantification was performed with Analyst Software V 1.5.1 (Sciex, Darmstadt, Germany) employing the internal standard method (isotope- dilution mass spectrometry). Ratios of analyte peak area and internal standard area (y-axis) were plotted against concentration (x-axis) and calibration curves were calculated by least square regression with 1/concentration^2 weighting.

CysLT1R = conditions: Table 2 comparison column; no method, no reference given; cited from earlier work
3T3-L1 cells = test: 3T3-L1 adipocyte differentiation, Oil Red O lipid accumulation; type: cell-based, murine; conditions: differentiation cocktail plus zafirlukast or montelukast 1, 5, 10 μM or rosiglitazone 2 μM; 14 days
Experimental: (§1) 3T3-L1 cells were differentiated into adipocytes for 14 days according to the protocol of [Zebisch et al. (2012)]. For this, cells were seeded in 6-well plates ([…]) and differentiation was induced after 48 h by addition of a differentiation cocktail containing 1 μg/mL insulin, 0.25 μM dexamethasone and 0.5 mM isobutylmethylxanthine (IBMX) in DMEM supplemented with 10% FCS and 1% PS. […] After 2 days, medium was replaced by DMEM supplemented with 10% FCS, 1% PS and 1 μg/mL insulin for 2 more days. Afterwards, cells were kept for lipid droplet accumulation in DMEM containing 10% FCS and 1% PS until day 15. Media were replaced every other day.
Differentiated 3T3-L1 cells were washed with PBS and subsequently fixed for 60 min with formaldehyde (4% in PBS). Afterwards, cells were thoroughly rinsed with 60% isopropanol and incubated with Oil Red O solution (0.3% in 60% isopropanol) for 120 min. This was followed by the removal of the staining solution and thorough rinsing of the cell layer with ultrapure water. Finally, the plates were dried and pictures of the stained cell layers were taken.
For quantification of the accumulated dye, 3T3-L1 cells were seeded in 24-well plates (0.55 × 10^5/well) instead of 6-wells and the differentiation was carried out as described in the section ‘Adipocyte differentiation’. After 14 days of differentiation, cells were fixed and stained as described above. […] 100 μl of dye extract were transferred to a 96-well plate and absorbance was measured (λabs = 510 nm) by an Infinite F200 plate reader (Tecan Group Ltd., Männedorf, Switzerland). […]
As master regulator of adipocyte differentiation in men and mice, PPARγ plays a crucial role in the cell’s commitment to the adipocyte lineage by controlling important functions such as intracellular biosynthesis, transport and accumulation of lipids. […] Upon differentiation, different parameters such as lipid accumulation and PPARγ target gene expression can be assessed to investigate the PPARγ activating potential of the compounds of interest. […]

[3] = tested on: PPARγ, FABP-4 and CD36 protein in 3T3-L1 adipocytes; test: Protein expression in differentiated 3T3-L1 adipocytes (Western Blot); type: cell-based, murine; conditions: rosiglitazone 2 μM
Experimental: as §1
(§2) Total 3T3-L1 or HEP-G2 cell lysates were prepared in lysis buffer (20 mM Tris-HCl, pH 7.4, 150 mM NaCl, 2 mM EDTA, 1% Triton X-100, 0.5% NP-40) supplemented with protease and phosphatase inhibitors (PhosSTOP^TM + cOmplete^TM Mini, Roche Diagnostics GmbH, Mannheim, Germany). Protein concentrations were quantified using the Pierce^TM BCA Protein Assay Kit (Thermo Scientific, Waltham, MA, United States). Total protein (30 μg/lane) was separated by SDS-polyacrylamide gel electrophoresis and transferred to nitrocellulose membranes (GE Healthcare Life Sciences, Little Chalfont, United Kingdom). Membranes were blocked with Odyssey blocking reagent (LI-COR Biosciences, Bad Homburg, Germany) for 1 h at room temperature. Ensuing, membranes were incubated with antibodies against CD36 (EPR6573, Abcam, Cambridge, United Kingdom), PPARγ (E-8, Santa Cruz Biotechnology, Heidelberg, Germany), FABP-4 (C-15, Santa Cruz Biotechnology, Heidelberg, Germany) or PPARγ Ser273 (Bioss Antibodies Inc., Woburn, MA, United States) overnight at 4°C. Afterwards, membranes were washed and incubated with fluorescence conjugated secondary antibodies (IRDye, LI-COR Biosciences, Bad Homburg, Germany). Protein antibody complexes were visualized on the Odyssey Infrared Imaging System (LI-COR Biosciences, Bad Homburg, Germany). β-actin (I-19, goat, polyclonal, Santa Cruz Biotechnology, Heidelberg, Germany) was used as loading control. The density of the immune reactive bands was analyzed using the Image Studio 5.2 software (LI-COR Biosciences, Bad Homburg, Germany).
As master regulator of adipocyte differentiation in men and mice, PPARγ plays a crucial role in the cell’s commitment to the adipocyte lineage by controlling important functions such as intracellular biosynthesis, transport and accumulation of lipids. Murine 3T3-L1 fibroblasts are a well characterized in vitro tool to study PPARγ induced adipocyte differentiation. These cells can be differentiated from fibroblasts into adipocytes by an activation cocktail (0.5 mM IBMX, 1 μg/mL insulin, 0.25 μM dexamethasone) together with the potential PPARγ agonist. Upon differentiation, different parameters such as lipid accumulation and PPARγ target gene expression can be assessed to investigate the PPARγ activating potential of the compounds of interest. […] Rosiglitazone (2 μM) was used as positive control. This was followed by insulin (1 μg/mL) treatment for another 48 h. After this, cells were kept in growth medium for a week to complete the differentiation process and allow intracellular lipid accumulation. Subsequently, the cells were stained with Oil Red O solution to investigate the extent of cytoplasmic lipid droplet accumulation as a measure for cell differentiation.
In addition to mRNA expression, the protein expression levels of the two PPARγ target genes FABP-4 and CD36 in differentiated 3T3-L1 cells after 14 days were investigated. For this, total protein lysates were separated by gel electrophoresis followed by Western Blotting (Figure 3E,F and Supplementary Figures S2A,B).

[4] = tested on: PPARγ2 phosphorylation at serine 273; test: TNFα triggered PPARγ Ser273 phosphorylation in 3T3-L1 adipocytes (Western Blot); type: cell-based, murine; conditions: zafirlukast 1 or 10 μM or rosiglitazone 2 μM for 45 min, then TNFα 50 ng/mL 30 min
Experimental: as §2, with “Ensuing, membranes were incubated with antibodies against CD36 (EPR6573, Abcam, Cambridge, United Kingdom), PPARγ (E-8, Santa Cruz Biotechnology, Heidelberg, Germany), FABP-4 (C-15, Santa Cruz Biotechnology, Heidelberg, Germany) or PPARγ Ser273 (Bioss Antibodies Inc., Woburn, MA, United States) overnight at 4°C.” left out, “Protein antibody complexes were visualized on the Odyssey Infrared Imaging System (LI-COR Biosciences, Bad Homburg, Germany). β-actin (I-19, goat, polyclonal, Santa Cruz Biotechnology, Heidelberg, Germany) was used as loading control.” left out
We induced this post-translational modification by short-term treatment of the differentiated cells with the cytokine TNFα, generating a pro-inflammatory milieu. […] For this, we used an assay system in which the recruitment of the fluorescence-tagged PPARγ coactivator CBP to the PPARγ-LBD was assessed by time-resolved FRET technique in presence and absence of rosiglitazone.

O=C(Nc1cccc2c(=O)cc(-c3nnn[nH]3)oc12)c1ccc(OCCCCc2ccccc2)cc1 [Pranlukast, pranlukast]
PPARα EC50 [1]: i.a. @ 10 μM | PPARδ EC50 [2]: i.a. @ 10 μM | IC50 (recombinant human sEH): 8.86 ± 0.19 µM | IC50 (sEH (HEP-G2)): 14.1 µM | IC50 (CysLT1R): 0.004 µM

CN(CCOc1ccc(CC2SC(=O)NC2=O)cc1)c1ccccn1 (stereo not drawn) [rosiglitazone]
Lipid accumulation (Oil Red O staining) (3T3-L1 cells): strong accumulation of lipid droplets | PPARγ isoforms γ1 and γ2 protein expression ([3]; 3T3-L1 differentiated with cocktail plus compound): upregulated the protein levels | Protein expression of PPARγ target genes FABP-4 and CD36 ([3]; after 14 days): upregulated the expression of all target genes investigated with high potency | TNFα induced phosphorylation of PPARγ2 at serine 273 [4]: inhibited this phosphorylation, although this effect was not significant
